From publication PMC4977194 (Bioorganic & medicinal chemistry letters, 2016) come the findings set out here.

For one assay, the target named is VMAT2 (Rattus norvegicus, UniProt Q01827). Kind of assay: Vesicular [3H]DA uptake assay. The following applies: for further improvement in inhibitory potency at VMAT2 on hydrolysis of the 4-acetoxy groups: relative to acetoxy precursors 4 and 5. Format: biochemical.
The target in the next assay is SERT (Rattus norvegicus, UniProt P31652). Kind of assay: Synaptosomal [3H]5-HT uptake assay. Format: biochemical.
Sequence of SERT (P31652 whole entry): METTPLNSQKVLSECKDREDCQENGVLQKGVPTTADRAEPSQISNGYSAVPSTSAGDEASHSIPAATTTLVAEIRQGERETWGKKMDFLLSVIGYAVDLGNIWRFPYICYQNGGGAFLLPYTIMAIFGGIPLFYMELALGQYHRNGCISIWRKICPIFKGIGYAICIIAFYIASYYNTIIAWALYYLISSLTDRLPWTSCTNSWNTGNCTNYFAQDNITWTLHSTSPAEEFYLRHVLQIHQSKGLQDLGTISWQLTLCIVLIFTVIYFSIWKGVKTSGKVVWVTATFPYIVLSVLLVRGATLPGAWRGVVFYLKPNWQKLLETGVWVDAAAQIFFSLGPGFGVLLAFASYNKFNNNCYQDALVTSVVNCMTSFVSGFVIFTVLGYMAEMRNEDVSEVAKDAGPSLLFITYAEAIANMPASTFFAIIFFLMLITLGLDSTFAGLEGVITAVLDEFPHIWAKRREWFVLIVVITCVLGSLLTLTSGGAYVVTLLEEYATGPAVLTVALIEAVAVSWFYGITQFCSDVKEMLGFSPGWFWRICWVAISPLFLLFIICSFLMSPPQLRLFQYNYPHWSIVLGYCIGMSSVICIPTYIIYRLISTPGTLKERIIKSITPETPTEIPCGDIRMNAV

Sequence of VMAT2 (Q01827 whole entry): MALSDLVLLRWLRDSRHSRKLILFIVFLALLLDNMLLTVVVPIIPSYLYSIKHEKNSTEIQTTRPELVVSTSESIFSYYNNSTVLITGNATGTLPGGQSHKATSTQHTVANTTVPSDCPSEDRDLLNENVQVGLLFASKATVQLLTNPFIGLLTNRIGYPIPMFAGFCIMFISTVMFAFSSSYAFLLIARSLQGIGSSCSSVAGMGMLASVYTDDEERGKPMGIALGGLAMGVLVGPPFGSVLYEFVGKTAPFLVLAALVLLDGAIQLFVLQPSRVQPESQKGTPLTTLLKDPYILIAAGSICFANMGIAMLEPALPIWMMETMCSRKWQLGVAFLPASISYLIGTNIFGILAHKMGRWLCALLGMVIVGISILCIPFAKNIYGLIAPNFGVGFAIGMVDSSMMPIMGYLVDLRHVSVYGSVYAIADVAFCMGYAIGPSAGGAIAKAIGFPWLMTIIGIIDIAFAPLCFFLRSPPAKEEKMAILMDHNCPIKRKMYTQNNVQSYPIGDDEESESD

In the case of `CC(=O)Oc1ccc(CC[C@H]2CCC[C@@H](CCc3ccc(OC(C)=O)cc3)N2C)cc1.Cl` [Compound 5], at VMAT2 (N-methylation of 4), the “improved inhibitory potency at VMAT2 relative to 4” value is recorded as 3 fold.

In the case of `CN1[C@@H](CCc2ccc(O)cc2)CCC[C@H]1CCc1ccc(O)cc1.Cl` [Compound 6], the “further improvement in inhibitory potency at VMAT2 on hydrolysis of the 4-acetoxy groups” value on VMAT2 is given as “about 2 fold”.

As to `Cl.Oc1ccc(CC[C@H]2CCC[C@@H](CCc3ccc(O)cc3)N2)cc1` [Compound 7], the “further improvement in inhibitory potency at VMAT2 on hydrolysis of the 4-acetoxy groups” value at VMAT2 is reported as “about 2 fold”.

Regarding `Cl.FCCOc1ccc(CC[C@H]2CCC[C@@H](CCc3ccc(OCCF)cc3)N2)cc1` [Compound 13], the “greater affinity for SERT than lobelane” value on SERT amounted to 6 fold.

Turning to `Cl.OC[C@H](O)CN1[C@@H](CCc2ccc(O)cc2)CCC[C@H]1CCc1ccc(OCCF)cc1` [Compound 16], the “greater affinity for SERT than GZ-793A” value on SERT worked out at 7 fold.

For the compound `Cl.OC[C@H](O)CN1[C@@H](CCc2ccc(OCCF)cc2)CCC[C@H]1CCc1ccc(OCCF)cc1` [Compound 17], on SERT, the “decrease in affinity for SERT when compared to GZ-793A” value was determined as 4 fold.
